Results on 27 molecules are retold here after patent publication US9901549B2, “Method for treating vaginal dryness by administering transient receptor potential cation channel subfamily M member 8 (TRPM8) receptor agonists” (UNIVERSIDAD MIGUEL HERNÁNDEZ DE ELCHE, priority 2010, dated 2018).

Test [1] concerns the target T1, TRPM8 channels (Homo sapiens, UniProt Q7Z2W7). To be noted: FL; data from Behrendt et al., 2004; cited from earlier work.
For test [2], the target named is T1, TRPM8 channels. To be noted: EP, cited from earlier work.
Test [3] relates to cold-sensitive nerve terminals of the mouse cornea. The experiment in a line: Nerve terminal impulse (NTI) activity recorded in vitro from cold-sensitive nerve terminals of the cornea. As for the experimental part: To define functionally the thermal sensitivity and encoding capacity of intact cold-sensitive nerve terminals, nerve terminal impulse (NTI) activity from the cornea of wild-type mice eyes was recorded ‘in vitro’ (Brock, J. A., et al., 1998. J. Physiol 512:211-217).
J. Neurosci. 26:12512-12525, Jordt, S. E. et al. 2004. Nature 427:260-265).

The subject of test [4] is eyes of TRPM8(−/−) and wild type mice. Description: Tear flow (phenol red thread) after topical application to the eye. Format: in vivo, mouse. The following applies: capsaicin 1 μM, AITC 500 μM. As for the experimental part:
FIG. 4. Dependence of tear secretion rate on corneal temperature. a. […] Shaded and filled columns represent tearing rate in animals at mean neutral (28.4° C.) or hot temperature (42.5° C.), respectively. The number of measures of successive columns is 35, 11, 23, 9 and 6 observations **p<0.01, ***p<0.001 Mann-Whitney test). b. Increase in tearing rate measured in wild type animals (black columns) and TRPM8−/−(grey columns) elicited by application during 60 s, of a filter paper soaked in capsaicin 1 μM (n=12 and 15) or 500 μM allyl-isothyocyanate. […] Measurements of tear secretion were performed 1 minute after removing the paper with the drug. Statistically significant differences were found with respect to baseline lacrimation, using the Wilcoxon test (*p<0.05, ***p<0.001). c. Mean tearing rate expressed as the wetted length value of the phenol red thread, measured in the eyes of 11 human volunteers at environment temperatures of 18° C., 25° C. and 43° C. that lead to corneal surface temperatures of 32.4±0.4° C.; 34.2±0.1° C. and 36.0±0.2° C. respectively.
Next, it was reasoned that if tear production is associated to the neural activity of cold thermoreceptor fibers, basal tear flow should be reduced in TRPM8(−/−) mice, in which spontaneous activity is absent.

In test [5] the target is T2, native TRPM8 channel (Homo sapiens, UniProt Q7Z2W7). To be noted: CI, cited from earlier work.
T2 sequence (Q7Z2W7 whole entry): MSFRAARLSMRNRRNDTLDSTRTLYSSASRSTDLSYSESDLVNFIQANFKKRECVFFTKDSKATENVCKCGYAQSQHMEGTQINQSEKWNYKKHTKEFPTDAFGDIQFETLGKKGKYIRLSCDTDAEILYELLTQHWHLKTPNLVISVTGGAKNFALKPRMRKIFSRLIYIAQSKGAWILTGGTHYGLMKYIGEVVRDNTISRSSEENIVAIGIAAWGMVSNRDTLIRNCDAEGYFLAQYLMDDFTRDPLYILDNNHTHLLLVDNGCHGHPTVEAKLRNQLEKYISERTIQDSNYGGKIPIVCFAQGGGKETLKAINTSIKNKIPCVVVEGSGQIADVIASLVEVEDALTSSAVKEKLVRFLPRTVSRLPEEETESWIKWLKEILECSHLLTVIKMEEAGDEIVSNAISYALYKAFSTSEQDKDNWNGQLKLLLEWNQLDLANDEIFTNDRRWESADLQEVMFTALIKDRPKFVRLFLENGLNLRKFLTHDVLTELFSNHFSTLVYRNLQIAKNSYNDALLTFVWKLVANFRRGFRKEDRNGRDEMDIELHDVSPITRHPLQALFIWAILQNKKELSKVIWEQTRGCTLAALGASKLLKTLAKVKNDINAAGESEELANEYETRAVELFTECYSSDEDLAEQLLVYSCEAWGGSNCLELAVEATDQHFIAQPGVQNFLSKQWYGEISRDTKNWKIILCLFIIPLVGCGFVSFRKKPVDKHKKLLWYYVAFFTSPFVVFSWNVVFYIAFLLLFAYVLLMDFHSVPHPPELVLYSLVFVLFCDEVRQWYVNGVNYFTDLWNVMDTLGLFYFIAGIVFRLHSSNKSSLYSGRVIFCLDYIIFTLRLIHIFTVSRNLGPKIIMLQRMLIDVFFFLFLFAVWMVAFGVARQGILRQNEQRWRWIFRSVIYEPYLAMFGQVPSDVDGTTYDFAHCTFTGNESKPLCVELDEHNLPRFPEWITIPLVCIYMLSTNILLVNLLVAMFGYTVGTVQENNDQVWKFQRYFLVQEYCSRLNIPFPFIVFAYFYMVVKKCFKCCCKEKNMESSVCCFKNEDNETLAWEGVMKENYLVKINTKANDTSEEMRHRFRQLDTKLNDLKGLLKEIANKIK
Test [6] has as its target T2, native TRPM8 channel. The following applies: EP, cited from earlier work.
Test [7] deals with T1, TRPM8 channels. The following applies: CI; data from Bodding et al., 2007; cited from earlier work.
For test [8], the system named is cold-sensitive nerve terminals of the mouse cornea. Description: Nerve terminal impulse (NTI) activity recorded in vitro from cold-sensitive nerve terminals of the cornea. The source holds these as a separate data set.
Test [9] deals with T2, native TRPM8 channel. To be noted: read-out: IC50 menthol; SF; 20 μM menthol at 22° C.; Ortar et al. 2010; cited from earlier work.
The target in test [10] is T2, native TRPM8 channel. To be noted: read-out: IC50 menthol; 100 μM menthol; FL; Behrendt et al. 2004; cited from earlier work.
The mark [11] stands for this setting: cold, Malkia et al. 2007, read-out: IC50 cold.
[12] abbreviates: cold, +80 mV, Malkia et al. 2007, read-out: IC50 cold.
Where [13] appears, read: read-out: IC50 menthol, 100 μM menthol, −70 mV, Weil 2005.

Molecules are shown by their SMILES. Read-outs that look alike come from different tables or passages of the source.

T1 sequence (Q7Z2W7 whole entry): as above

One may read the EC50 as the concentration that produces a half-maximal response. Turning to `CC12CCC(CC1)C(C)(C)O2` [Eucalyptol], the EC50 is 7700 ± 2000 µM on TRPM8 channels [1] and 3400 ± 400 µM at TRPM8 channels [2] (data from McKemy et al., 2002).

Take `C=CCN=C=S` [AITC, allyl-isothiocyanate]: in test [3] (AITC 100 μM, 28 cold-sensitive nerve endings tested), the “effect on spontaneous or cold-evoked activity” value is given as “failed to modify the spontaneous or cold-evoked activity in 24 of them”. Besides, the “nerve endings with significant increase in trigger frequency at basal temperature” value in [3] (AITC 100 μM, of 28 endings tested) is reported as “four”. Further, in test [4], the tear flow result was “significantly increased”.

The IC50 is the point on the concentration scale where inhibition reaches its midpoint. Take `c1cnc2c(c1)ccc1cccnc12` [Phenanthroline]: the figures for the IC50 at native TRPM8 channel [5] (setting [11]) and at native TRPM8 channel [6] (setting [12]) were 100 ± 20 µM and 180 ± 20 µM, respectively.

Consider `CC1CCC(C(C)C)C(C(=O)OCC(O)CO)C1` (centres unmarked) [WS-30, 2-isopropyl-5-methyl-cyclohexanecarboxylic acid ester 2,3-dihydroxy-propyl], for which the EC50 at TRPM8 channels [7] is 5.6 µM.

Take `CC(C)(C)c1ccc(NC(=O)N2CCN(c3ncccc3Cl)CC2)cc1` [BCTC, N-(4-tert-butyl-phenyl)-4-(3-chloropyridin-2-yl) tetrahydropyrazine-1(2H)-carboxamide]: the “spontaneous activity and trigger frequency of cold- and menthol-evoked discharges” value in test [3] (BCTC 10 μM perfusion during 90 min) is “decreased gradually and almost silenced”. The “effects of BCTC on nerve ending activity in TRPA1(−/−) mice” value in test [3] (BCTC 10 μM, TRPA1(−/−) mice) is “also observed”. Moreover, in test [3] (after BCTC 10 μM removal), the “decline in activity upon removal of the drug” value is recorded as “reversed partially”. Further, the IC50 on native TRPM8 channel [5] (setting [11]) was 0.68 ± 0.06 µM; at native TRPM8 channel [6] (setting [12]), 0.54 ± 0.04 µM; on native TRPM8 channel [6] (read-out: IC50 menthol, 100 μM menthol, +80 mV, modified by Madrid 2006) it was 0.34 ± 0.04 µM.

On to `CC(O)C(=O)O[C@@H]1C[C@H](C)CC[C@H]1C(C)C` (some centres unmarked) [Frescolat ML], for which, on TRPM8 channels [1], the EC50 is 3.3 ± 1.5 µM.

Take `CC1CCC(C(C)C)C(C(=O)NC(C)(C)C)C1` (centres unmarked) [WS-14, 2-isopropyl-5-methyl-cyclohexanecarboxylic acid tert-butylamide]: the EC50 at TRPM8 channels [2] (data from Beck et al., 2007) is 21.2 µM.

Regarding `CC(C)[C@@H]1CC[C@@H](C)C[C@H]1OCC(O)CO` (mixture of isomers) [Cooling Agent 10], on TRPM8 channels [1], the EC50 was 6 ± 2.2 µM.

For the molecule `CC(CC=O)CCCC(C)(C)O` (centres unmarked) [Hydroxyl-citronellal], on TRPM8 channels [1], the EC50 is 19600 ± 2200 µM.

For `COc1cc(CNC(=O)CCCC/C=C/C(C)C)ccc1O` [capsaicin], in test [3] (100 nM capsaicin, wild-type mice), the “cold-sensitive endings that responded” value was 65%. Moreover, the tear flow entry in test [4] is given as “significantly increased”. In addition, the “impulse discharge evoked in active units” value in [8] (capsaicin 100 nM, TRPM8(−/−) corneas, six units tested) is “evoked a few impulses in two endings (5 and 8 impulses, respectively) and a vigorous, discharge lasting more than 30 s in another”.

`CCNC(=O)C1CC(C)CCC1C(C)C` (centres unmarked) [WS-3, N-ethyl-p-menthane-3-carboxamide]: at TRPM8 channels [1], the 50% effective concentration (EC50) is 3.7 ± 1.7 µM.

For the molecule `CCN(CCNC(=O)Nc1ccccc1Br)c1cccc(C)c1` [SB-452533, N-(2-bhromophenyl)-N′-(2-[ethyl(3-methylphenyl)amino]ethyl)urea], the 50% inhibitory concentration (IC50) on native TRPM8 channel [6] (setting [13]) is 0.571 ± 0.077 µM.

For `Nc1ccncc1` [Compound 4-AP, 4-aminopyridine], the “cold threshold of the endings” value in test [3] (4-AP 100 μM) is on record as “no parallel changes”. For the same molecule, the “mean peak frequency of cold responses depressed” value in test [3] (4-AP 100 μM, n=9) is recorded as 39±6 % of the control value. Besides, in [3] (4-AP 100 μM, nine studied units), the “units with significantly increased spontaneous activity” value is on record as “three out of nine”.

Regarding `CCOC(=O)C(C)NC(=O)C1C[C@H](C)CC[C@H]1C(C)C` (some centres unmarked) [CPS-369], the EC50 on TRPM8 channels [7] was 3.6 µM.

For the molecule `CC(C)[C@@H]1CC[C@@H](C)C[C@H]1NC(=O)c1ccc(-c2ccccc2)cc1` [MAD1d, N-[(1R,2S,5R)-2-Isopropyl-5-methylcyclohexyl]biphenyl-4-carboxamide], the IC50 on native TRPM8 channel [9] is 0.02 ± 0.0024 µM.

For `CC1CCC(C(C)(C)O)C(O)C1` (centres unmarked) [PMD-38, p-menthane-3,8-diol], the 50% effective concentration (EC50) on TRPM8 channels [1] is 31 ± 1.1 µM.

Take `Clc1ccccc1C(c1ccccc1)(c1ccccc1)n1ccnc1` [Clotrimazole, 1-[(2-chlorophenyl)diphenylmethyl]-1H-imidazol]: the IC50 at native TRPM8 channel [6] (read-out: IC50 menthol, 100 μM menthol, +50 mV, Meseguer et al. 2008) was 1.2 µM.

As for `COc1ccc(NC(=O)[C@@H]2C[C@H](C)CC[C@H]2C(C)C)cc1` (stereo in doubt) [WS-12, 2-isopropyl-5-methyl-cyclohexanecarboxylic acid (4-methoxyphenyl)-amide], the EC50 was 0.193 µM at TRPM8 channels [7]; 0.039 µM at TRPM8 channels [2] (data from Beck et al., 2007); 0.68 µM on TRPM8 channels [2] (data from Bodding et al., 2007).

With `C=C[C@@](C)(O)CCC=C(C)C` [Linalool, Linallol], the concentration giving a half-maximal response (EC50) at TRPM8 channels [1] is 6700 ± 2000 µM.

As to `CC1CCC(C(C)C)C(C(=O)NC(C)(C)CO)C1` (centres unmarked) [WS-11, 2-isopropyl-5-methyl-cyclohexanecarboxylic acid (2-hydroxy-1,1-dimethyl-ethyl)-amide], the EC50 at TRPM8 channels [2] (data from Beck et al., 2007) is 6.25 µM.

For `COc1ccc(CCCOC(Cn2ccnc2)c2ccc(OC)cc2)cc1` (centres unmarked) [SKF96365], the IC50 at native TRPM8 channel [5] (setting [11]) was 1 ± 0.2 µM; on native TRPM8 channel [5] (read-out: IC50 menthol, 100 μM menthol, modified by Madrid 2006), 3 ± 1 µM; at native TRPM8 channel [6] (setting [12]), 0.8 ± 0.1 µM.

Regarding `CC(C)[C@@H]1CC[C@@H](C)C[C@H]1O` (relative stereo) [Menthol], in test [3] (during perfusion with menthol 50 μM, 5% before treatment), the “percentage of terminals with a bursting firing pattern at 34° C.” value is 44%. In addition, the “temperature of silencing during cooling ramps” value in test [3] (menthol 50 μM, control 23.8±0.4) was 25.2±0.4 °C. Besides, the “temperature at which peak frequency is reached during cooling ramps” value in test [3] (menthol 50 μM, control 26.7±0.5, n=44) was determined as 28.6±0.5 °C. The spontaneous activity in test [3] (menthol 50 μM, from 3.4±0.3 before, n=44) worked out at 18.4±1.4 impulses/s. In addition, in test [3] (menthol 50 μM, n=44), the “tested endings with increased spontaneous activity” value is reported as 98%. Also, the “trigger frequency at basal temperature of 34° C. or during cooling ramps” value in test [8] (50 μM menthol perfusion, TRPM8(−/−) corneas, n=6) is reported as “no increase”. The “trigger frequency in basal temperature, cold threshold and peak frequency” value in [8] (menthol 50 μM, TRPM8(+/−) mice, significantly less than in TRPM8(+/+)) is on record as “enhanced”.

With `Oc1cc2c(cc1O)CN(C(=S)NCCc1ccc(Cl)cc1)CCC2` [Capsazepine, N-[2-(4-chlorophenyl)ethyl]-1,3,4,5-tetrahydro-7,8-dihydroxy-2H-2-benzazepine-2-carbothioamide], the IC50 on native TRPM8 channel [5] (cold, Malkia et al. 2009, read-out: IC50 cold) was 12 ± 2 µM.

Consider `CCCCCCCP(=O)(C(C)CC)C(C)CC` (centres unmarked) [WS-148, 1-(di-sec-butyl-phosphinoyl)-heptane], for which the EC50 on TRPM8 channels [7] was 4.1 µM.

For `CC(C)(C)c1ccc(NC(=S)N2CCN(c3ncccc3Cl)CC2)cc1` [thio-BCTC, N-(4-tert-butyl-phenyl)-4-(3-chloropyridin-2-yl) tetrahydropyrazine-1(2H)-(thio)carboxamide], the IC50 on native TRPM8 channel [10] was 3.5 ± 1.1 µM.

Take `CC(C)[C@@H]1CC[C@@H](C)CC12OCC(CO)O2` (mixture of isomers) [Frescolat MGA]: the half-maximal effective concentration (EC50) at TRPM8 channels [1] was 4.8 ± 1.1 µM.

As to `C[C@@H]1CN(c2ncccc2Cl)CCN1C(=O)Nc1ccc(C(F)(F)F)cc1` [CTPC, (2R)-4-(3-chloro-2-pyridinyl)-2-methyl-N-[4-(trifluoromethyl)phenyl]-1-pyperazine-carboxamide], the concentration for half-maximal inhibition (IC50) at native TRPM8 channel [6] (setting [13]) is 0.131 ± 0.014 µM.
